Test results: US20060084675A1, “Combined treatment with artesunate and an epidermal growth factor receptor kinase inhibitor” (priority 2004, published 2006)
Where “and” joins values, the source holds several entries; their conditions need not be identical. Equal entries are not always repeated. Where two headings read alike, the source gives them in different places.

Columns and labels:
14 GBM cell lines = assay: Growth inhibition assay, panel; format: cell-based; details: Homo sapiens; ART alone; range over 14 cell lines
Text: (1997) J. Biol. Chem. 272:2927-2935). The cell lines were provided by Dr. W. K. Cavenee (Ludwig Institute for Cancer Research, San Diego, Calif., U.S.A.). Cell culture conditions of these cell lines were as described ([…], et al. (1996) Cancer Res. 56:5079-5086). Nine established GBM cell lines derived from histopathologically confirmed neurosurgical specimens obtained in the Department for Neurosurgery, University of Gottingen, Germany, were maintained in RPMI 1640 medium (BioWhittaker, Walkersville, Md., U.S.A.) supplemented with 10% heat-inactivated fetal calf serum and incubated in a humidified 5% CO2 atmosphere at 37° C. Medium was exchanged twice weekly, and cells were passaged upon reaching subconfluence. At the beginning of the study, all cell lines were beyond their 20th passage. The in vitro response to cytostatic drugs was evaluated by means of a growth inhibition assay. Aliquots of 5×10^3 cells/ml were seeded in culture medium, and drugs were added at different concentrations. Cells were counted 10 days after seeding. These growth curves represent the net outcome of cell proliferation and cell death. Cell numbers were quantitated each in eight independent determinations. […] G. and Peckham, M. J. (1979) Int. J. Radiat. Oncol. Biol. Phys. 5:85-91; Berenbaum, M. C. (1981) Adv. Cancer Res. 35:269-335).

[1] = intravenous application of 2 mg/kg; cited from earlier work
G-599GM cell line = assay: Growth inhibition assay (incl. isobolographic analysis); format: cell-based; details: Homo sapiens; for IC50: read-out: IC50, drug alone
Experimental: Nine established GBM cell lines derived from histopathologically confirmed neurosurgical specimens obtained in the Department for Neurosurgery, University of Gottingen, Germany, were maintained in RPMI 1640 medium (BioWhittaker, Walkersville, Md., U.S.A.) supplemented with 10% heat-inactivated fetal calf serum and incubated in a humidified 5% CO2 atmosphere at 37° C. Medium was exchanged twice weekly, and cells were passaged upon reaching subconfluence. At the beginning of the study, all cell lines were beyond their 20th passage. The in vitro response to cytostatic drugs was evaluated by means of a growth inhibition assay. Aliquots of 5×10^3 cells/ml were seeded in culture medium, and drugs were added at different concentrations. Cells were counted 10 days after seeding. These growth curves represent the net outcome of cell proliferation and cell death. Cell numbers were quantitated each in eight independent determinations. […] G. and Peckham, M. J. (1979) Int. J. Radiat. Oncol. Biol. Phys. 5:85-91; Berenbaum, M. C. (1981) Adv. Cancer Res. 35:269-335).

U-87MG cells = assay: Growth inhibition assay; format: cell-based; details: Homo sapiens, 240 h, single drug, cells counted 10 days after seeding, read-out: IC50 calculated from the dose-response curves
Experimental: (§1) The establishment of the parental human GBM cell line U-87MG and its derivatives which overexpress exogenous wild-type epidermal growth factor receptor (U-87MG.WT-2N), tyrosine kinase-deficient EGFR (U-87MG.DK-2N), EGFR with a genomic deletion of exons 2 to 7 (U-87MG.ΔEGFR), or control expression vector (U-87MG.LUX), respectively, has been described elsewhere (Huang, H-J S et al. (1997) J. Biol. Chem. 272:2927-2935). The cell lines were provided by Dr. W. K. Cavenee (Ludwig Institute for Cancer Research, San Diego, Calif., U.S.A.). Cell culture conditions of these cell lines were as described (Nagane M, et al. (1996) Cancer Res. 56:5079-5086).
(§2) The in vitro response to cytostatic drugs was evaluated by means of a growth inhibition assay. Aliquots of 5×10^3 cells/ml were seeded in culture medium, and drugs were added at different concentrations. Cells were counted 10 days after seeding. These growth curves represent the net outcome of cell proliferation and cell death. Cell numbers were quantitated each in eight independent determinations.

U-87MG.WT-2N cells = assay: Growth inhibition assay; format: cell-based; details: Homo sapiens
Experimental: as §1, §2

[2] = patients with advanced solid malignancies, phase I; cited from earlier work
G-1265GM = assay: Growth inhibition assay; format: cell-based; details: Homo sapiens
Experimental: Nine established GBM cell lines derived from histopathologically confirmed neurosurgical specimens obtained in the Department for Neurosurgery, University of Gottingen, Germany, were maintained in RPMI 1640 medium (BioWhittaker, Walkersville, Md., U.S.A.) supplemented with 10% heat-inactivated fetal calf serum and incubated in a humidified 5% CO2 atmosphere at 37° C. Medium was exchanged twice weekly, and cells were passaged upon reaching subconfluence. At the beginning of the study, all cell lines were beyond their 20th passage.
as §2

In the case of `C[C@H]1[C@H](OC(=O)CCC(=O)O)O[C@@H]2O[C@@]3(C)CC[C@H]4[C@H](C)CC[C@@H]1[C@@]24OO3` [ART, artesunate], the IC50 (14 GBM cell lines) is given as 1.5 to 18.5 µM, the peak plasma concentration [1] is given as 6.88 ± 4.69 µM and the IC50 (G-599GM cell line; single drug) is given as 4.2 µM.
In the case of `C#Cc1cccc(Nc2ncnc3cc(OCCOC)c(OCCOC)cc23)c1` [OSI-774, [6,7-bis(2-methoxyethoxy)-4-quinazolin-4-yl]-(3-ethynylphenyl)amine], the IC50 (U-87MG cells) is given as 8.6 µM, the inhibition at 1 µM (U-87MG.WT-2N cells) is given as 33.8% and the “average minimal steady state plasma concentration” value [2] is given as 1.2 μg/ml and 3 μM. For the same compound, the IC50 (G-599GM cell line) was 1.3 µM, the inhibition at 1 µM (G-599GM cell line; read-out: growth inhibition) was 23.4% and the inhibition at 1 µM (G-1265GM) was -1.79%.
